Experimental data: patent publication US10201517B2, “Brimonidine gel compositions and methods of use” (Galderma Laboratories, L.P., priority 2010, dated 2019)

Assay: Microscopic observation of gel compositions for methylparaben crystalline particles
Type: physicochemical
Method: Microscopic observations were performed on additional representative batches of brimonidine topical gel compositions and placebo gel compositions containing 1.25% (w/w) carbomer, POBM and other ingredients. The observations have been done on one tube of each batch, with the microscope Axiolab DRBKT Zeiss no. 023733.01 with a camera ICC Zeiss or the microscope Olympus BX60. The microscopic observations were done at 5° C. and room temperature.
Numerous formulations with different ingredients and varying concentrations of the ingredients were made and tested for the presence of the paraben crystals by microscopic observations. The microbiological quality of the formulations was also analyzed by using acceptance-test criteria in preservative-efficacy testing (PET) in the United States Pharmacopeia (USP) and the European Pharmacopoeia (EP).

Row | SMILES | recrystallization in formulation (addition of 0.1% of EDTA, POBM at 0.3% (w/w)) | crystalline particles in formulation (methylparaben replaced with Na POBM at 0.3% (w/w))
1 | COC(=O)c1ccc(O)cc1 [methylparaben, methyl parahydroxybenzoate] | immediate recrystallization | –
2 | COC(=O)c1ccc([O-])cc1.[Na+] [Na POBM] | – | crystalline particles of Na POBM were still observed
